Measurements from patent US4661510A, “α-allenic-α-amino acids as enzyme inhibitors” (priority 1985, dated 1987).

Assays:
[1] = system: rat brain glutamate decarboxylase; details: Crystal et al 1977; cited from earlier work
[2] = target: T1, aromatic amino acid decarboxylase (Sus scrofa, UniProt P80041); details: Maycock et al; cited from earlier work
T1 sequence (P80041 1-486): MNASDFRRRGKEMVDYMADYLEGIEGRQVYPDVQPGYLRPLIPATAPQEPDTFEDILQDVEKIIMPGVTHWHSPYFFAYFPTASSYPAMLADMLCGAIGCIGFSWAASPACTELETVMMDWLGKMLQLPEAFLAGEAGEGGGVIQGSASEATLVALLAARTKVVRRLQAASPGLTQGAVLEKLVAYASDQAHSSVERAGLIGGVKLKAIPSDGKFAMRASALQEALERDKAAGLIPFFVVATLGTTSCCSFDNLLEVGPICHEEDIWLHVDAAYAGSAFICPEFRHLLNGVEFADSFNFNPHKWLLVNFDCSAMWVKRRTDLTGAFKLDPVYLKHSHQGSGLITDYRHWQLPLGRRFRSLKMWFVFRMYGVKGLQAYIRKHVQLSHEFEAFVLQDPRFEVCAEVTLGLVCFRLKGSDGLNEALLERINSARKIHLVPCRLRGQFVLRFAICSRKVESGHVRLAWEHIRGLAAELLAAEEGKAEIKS

[3] = target: T2, phenylalanine decarboxylase from Streptococcus faecallis (Enterococcus faecalis, UniProt Q838D6); assay: Time dependent inactivation of phenylalanine decarboxylase; format: biochemical; details: Streptococcus faecallis enzyme
T2 construct: L-phenylalanine substrate, phenylethylamine by GC
T2 sequence (Q838D6 1-620): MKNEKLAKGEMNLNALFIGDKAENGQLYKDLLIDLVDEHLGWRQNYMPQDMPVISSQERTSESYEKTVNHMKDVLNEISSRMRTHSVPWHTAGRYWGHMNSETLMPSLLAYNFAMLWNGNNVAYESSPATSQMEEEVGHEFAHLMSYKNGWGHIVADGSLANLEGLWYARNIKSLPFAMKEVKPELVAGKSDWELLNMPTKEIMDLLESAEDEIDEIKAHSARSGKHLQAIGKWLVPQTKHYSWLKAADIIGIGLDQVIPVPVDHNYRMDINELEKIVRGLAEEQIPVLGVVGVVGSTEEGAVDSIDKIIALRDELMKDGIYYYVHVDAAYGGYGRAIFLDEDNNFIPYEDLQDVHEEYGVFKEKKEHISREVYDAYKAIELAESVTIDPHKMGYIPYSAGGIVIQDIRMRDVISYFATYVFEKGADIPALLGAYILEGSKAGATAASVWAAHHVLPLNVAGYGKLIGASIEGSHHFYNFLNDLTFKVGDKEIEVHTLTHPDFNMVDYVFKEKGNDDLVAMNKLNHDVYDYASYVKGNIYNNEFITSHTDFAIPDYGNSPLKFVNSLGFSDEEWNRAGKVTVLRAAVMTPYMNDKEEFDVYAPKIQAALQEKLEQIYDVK
Source text: (§1) Mammalian DOPA decarboxylase was isolated and purified from porcine kidney by the procedure of Borri-Voltatorni et al [Eur. J. Biochem., 93, 181 (1979)] with modifications as introduced by Rudd and Thanassi [Biochemistry, 20, 7469 (1981)]. Bacterial L-phenylalanine and L-tyrosine decarboxylases ex Streptococcus faecallis were purchased from Sigma Chemical Co. as crude extracts and studied without further purification.
(§2) The time dependent inactivation of bacterial aromatic amino acid decarboxylases with 200-1000 micromolar inhibitor, e.g. 2-amino-2-(4-hydroxybenzyl)-penta-3,4-dienoic acid or 2-amino-2-benzylpenta-3,4-dienoic acid, was monitored at pH 5.5 and 37° C. Residual activity of tyrosine decarboxylase ex Streptococcus faecallis was determined by measurement of p-tyramine production at pH 5.5 and 37° C. p-Tyramine was separated by HPLC and quantified by electrochemical oxidation at +0.7 volts.
Residual activity of L-phenylalanine decarboxylase ex Streptococcus faecallis with L-phenylalanine (2 mM) as substrate was meaasured by gas chromatographic analysis of phenylethylamine production. Direct injection of enzymatic reaction mixture (1-5 microliters) onto a standard glass column packed with 10% Apiezon L on Chromosorb 80/100 deactivated with 2% KOH allowed separation of aromatic amine from the reaction mixture. FID detection quantified the rate of product formation.

[4] = target: T3, bacterial tyrosine decarboxylase from Streptococcus faecallis (Enterococcus faecalis, UniProt Q838D6); assay: Time dependent inactivation of tyrosine decarboxylase; format: biochemical; details: Streptococcus faecallis enzyme
T3 construct: purchased from Sigma Chemical Co. as crude extracts; purchased Sigma Chemical Co; host or cells: Streptococcus faecalis, crude extract
T3 sequence (Q838D6 1-620): T2 sequence (Q838D6 1-620)
Source text: as §1, §2

[5] = target: T4, mammalian DOPA decarboxylase from porcine kidney (Sus scrofa, UniProt P80041); assay: Time dependent inactivation of DOPA decarboxylase; format: biochemical; details: porcine kidney enzyme
T4 construct: isolated and purified from porcine kidney; from tissue; host or cells: porcine kidney
T4 sequence (P80041 1-486): T1 sequence (P80041 1-486)
Source text: as §1
Time dependent inactivation of mammalian DOPA decarboxylase was monitored by incubation of enzyme with 4 to 100 molar equivalent excess of 2-amino-2-(3,4-dihydroxybenzyl)penta-3,4-dienoic acid at pH 6.8 and 37° C. At appropriate time intervals, aliquots of the mixture were withdrawn, diluted 30-fold into excess L-DOPA (2 mM) and residual DOPA decarboxylase activity determined.
DOPA decarboxylase activity was routinely measured by liquid chromatography and electrochemical detection of catecholamine products. DOPA decarboxylase (1-5 micrograms, 1-20 units) was incubated with L-DOPA (2000 micromolar, 150 microliters) and PLP (10 micromolar) in 0.1M phosphate at pH 6.8 and 37° C. After 1-10 minutes, the reaction was quenched with citric acid (2M, 25 microliters), diluted two-fold with distilled water and 10 microliter aliquots were analyzed by HPLC on a reverse phase Brownlee RP-18 column. Isocratic elution with pH 4.35 buffer [0.1M NaOAc ([…]), 0.1M citric acid (32% v/v) and methanol (15% v/v)] at a flow rate of 2.5 ml/min. afforded baseline resolution of dopamine (RT=2.8 min.) from L-DOPA (RT=1.9 min.).
Quantification of dopamine was accomplished by preoxidation of the catechol to the ortho quinone at +0.25 volts in the first analytical electrochemical cell, followed by the selective reduction of ortho quinone in the second analytical cell set at -0.25 volts. This configuration for the ESA electrochemical detector allowed highly sensitive and selective detection of catecholamines (less than 10 picomoles/injection).

[6] = target: T5, rat prostate ornithine decarboxylase (Rattus norvegicus, UniProt P09057); details: Metcalf et al 1979; cited from earlier work
T5 construct: host or cells: rat prostate
T5 sequence (P09057 1-461): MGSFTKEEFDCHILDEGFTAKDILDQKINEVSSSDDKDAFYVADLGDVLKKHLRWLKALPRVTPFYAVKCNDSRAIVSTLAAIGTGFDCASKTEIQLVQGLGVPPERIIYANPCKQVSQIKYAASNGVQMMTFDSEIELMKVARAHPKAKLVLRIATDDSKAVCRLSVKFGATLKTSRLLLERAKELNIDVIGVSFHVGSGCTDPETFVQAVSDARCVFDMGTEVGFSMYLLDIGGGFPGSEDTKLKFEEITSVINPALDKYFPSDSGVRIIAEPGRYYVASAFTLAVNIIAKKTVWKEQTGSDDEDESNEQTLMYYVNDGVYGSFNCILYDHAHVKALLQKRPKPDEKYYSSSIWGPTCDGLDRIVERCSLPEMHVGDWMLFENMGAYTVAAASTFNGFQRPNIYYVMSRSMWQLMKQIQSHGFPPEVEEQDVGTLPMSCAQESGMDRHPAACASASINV

[7] = target: T6, rat liver ornithine decarboxylase (Rattus norvegicus, UniProt P09057); details: Metcalf et al 1979; cited from earlier work
T6 construct: host or cells: rat liver
T6 sequence (P09057 1-461): T5 sequence (P09057 1-461)

ornithine decarboxylase = target: T7, ornithine decarboxylase (Homo sapiens, UniProt P11926); details: Relyea and Rando 1975; cited from earlier work
T7 sequence (P11926 1-461): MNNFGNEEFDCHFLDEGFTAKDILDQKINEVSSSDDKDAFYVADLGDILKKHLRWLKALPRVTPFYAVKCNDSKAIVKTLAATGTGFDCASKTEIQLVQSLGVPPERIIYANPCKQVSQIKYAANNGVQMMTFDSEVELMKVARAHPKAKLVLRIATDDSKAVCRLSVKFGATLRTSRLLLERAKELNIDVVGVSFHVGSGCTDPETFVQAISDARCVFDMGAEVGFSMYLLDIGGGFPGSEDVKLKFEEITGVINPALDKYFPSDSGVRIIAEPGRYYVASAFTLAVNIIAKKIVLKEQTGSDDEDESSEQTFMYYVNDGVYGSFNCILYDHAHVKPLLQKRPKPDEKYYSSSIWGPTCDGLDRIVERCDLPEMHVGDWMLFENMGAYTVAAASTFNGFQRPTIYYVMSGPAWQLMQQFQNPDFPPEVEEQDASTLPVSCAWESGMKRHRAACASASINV

Male Sim:(S.D.)fBR rats = assay: In vivo potentiation of L-DOPA induced behaviors; design: species or system rat; details: for Mean Behavior Score at 60 min.: score scale 0-6, before 200 mg/kg L-DOPA i.p.
Description: Male Sim:(S.D.)fBR rats weighing 180-335 g were used for these experiments. Groups of 5 rats were individually housed and received water, or various doses of either 2-amino-2-(3-hydroxybenzyl)penta-3,4-dienoic acid or 2-amino-2-(3,4-dihydroxybenzyl)penta-3,4-dienoic acid 30 l minutes before 200 mg/kg of L-DOPA, i.p. Beginning 15 minutes later, behavioral observations were made at 15 minutes intervals for 2 hours. Behavoir was scored as follows:
3=Alert with intermittent sniffing

[8] = system: mammalian glutamate decarboxylase; details: Jung et al 1978; cited from earlier work
[9] = target: bacterial glutamate decarboxylase (Escherichia coli, UniProt P69910); details: Jung et al 1978; cited from earlier work
Chain of bacterial glutamate decarboxylase (P69910 whole entry): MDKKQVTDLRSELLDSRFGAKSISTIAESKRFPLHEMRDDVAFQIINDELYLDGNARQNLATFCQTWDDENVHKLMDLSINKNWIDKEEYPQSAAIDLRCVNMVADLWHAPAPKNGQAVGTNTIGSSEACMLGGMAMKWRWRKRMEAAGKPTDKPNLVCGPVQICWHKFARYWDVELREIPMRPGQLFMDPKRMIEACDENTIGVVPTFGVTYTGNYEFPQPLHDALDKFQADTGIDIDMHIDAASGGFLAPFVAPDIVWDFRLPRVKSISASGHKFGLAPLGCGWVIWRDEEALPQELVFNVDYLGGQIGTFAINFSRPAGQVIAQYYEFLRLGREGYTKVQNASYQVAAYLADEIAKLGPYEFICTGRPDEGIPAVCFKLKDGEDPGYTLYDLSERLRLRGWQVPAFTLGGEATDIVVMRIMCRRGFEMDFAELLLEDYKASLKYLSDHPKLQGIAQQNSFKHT

SMILES | irreversible inactivation of phenylalanine decarboxylase [3] | irreversible inactivation of tyrosine decarboxylase [4] | irreversible inactivation of DOPA decarboxylase [5] | also measured
CC(N)(/C=C/C(=O)O)C(=O)O (stereo not drawn) [α-methyl-trans-dehydroglutamic acid] | – | – | – | inhibition of glutamate decarboxylase [1]: irreversibly inhibits
C=CC(N)Cc1ccc(O)c(O)c1 (stereo not drawn) [α-vinyl-dopamine] | – | – | – | inactivation of aromatic amino acid decarboxylase [2]: slow-time dependent inactivation
CC=C=CC(N)(Cc1ccccc1)C(=O)O (centres unmarked) [2-amino-2-benzylhexa-3,4-dienoic acid] | irreversible inactivators | irreversible inactivators | irreversible inactivators | –
C#CC(N)CCCN (single isomer, unassigned; (-)) [(-)-5-hexyne-1,4-diamine] | – | – | – | inhibition of ornithine decarboxylase [6]: potent time-dependent inhibitor; inhibition of ornithine decarboxylase [7]: potent time-dependent inhibitor
NCC=CC(N)C(=O)O (stereo not drawn) [β, γ-dehydroornithine] | – | – | – | inhibition of ornithine decarboxylase (ornithine decarboxylase): very potent competitive inhibitor
C=C=CC(N)(Cc1ccc(O)c(O)c1)C(=O)O (centres unmarked) [2-amino-2-(3,4-dihydroxybenzyl)penta-3,4-dienoic acid] | irreversible inactivators | irreversible inactivators | irreversible inactivators | potentiation of the behaviors induced by L-DOPA (Male Sim:(S.D.)fBR rats; 30 mg/kg i.p. or s.c., 30 minutes before 200 mg/kg L-DOPA i.p.): active; Mean Behavior Score at 60 min. (Male Sim:(S.D.)fBR rats; 30 mg/kg i.p.): 4.0; Mean Behavior Score at 60 min. (Male Sim:(S.D.)fBR rats; 30 mg/kg s.c.): 4.0; potentiation of DOPA behaviors (Male Sim:(S.D.)fBR rats; 3 to 30 mg/kg i.p. or 30 to 150 mg/kg s.c.): potentiate DOPA behaviors
C=C=CC(N)(Cc1ccccc1)C(=O)O (centres unmarked) [2-amino-2-benzylpenta-3,4-dienoic acid] | irreversible inactivators | irreversible inactivators | irreversible inactivators | –
CC=C=CC(N)(Cc1cccc(O)c1)C(=O)O (centres unmarked) [2-amino-2-(3-hydroxybenzyl)hexa-3,4-dienoic acid] | irreversible inactivators | irreversible inactivators | irreversible inactivators | –
C#C[C@H](N)CCC(=O)O [(R) 4-amino-hex-5-ynoic acid] | – | – | – | inhibition of glutamate decarboxylase [8]: inhibit; inhibition of glutamate decarboxylase [9]: inhibit
C=C=CC(N)(Cc1ccc(O)cc1)C(=O)O (centres unmarked) [2-amino-2-(4-hydroxybenzyl)penta-3,4-dienoic acid] | irreversible inactivators | irreversible inactivators | irreversible inactivators | –
